Test results as given in patent publication US20260042764A1, “COMPOSITIONS AND METHODS FOR INHIBITION OF KRAS” (TheRas, Inc., priority 2022, published 2026).

Test system: GP2d cells (KRAS G12D)
Experiment: Cell-based pERK HTRF assay in GP2d cell (Biological Example 2)
Settings: GP2d, GP2d (KRAS G12D) cells, pERK HTRF
Summary of the method: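 Treatment with test compounds lasted one hour in DMEM containing 10% FBS, with DMSO held at 0.25%. Dilution series: 9 points, half-log spacing, highest 1 μM or 100 nM. Lysates were incubated 4–24 h at room temperature with antibody mix, then HTRF was read at 320 nm excitation.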

`CCN(c1nc(OC[C@@]23CCCN2C[C@H](F)C3)nc2c(F)c(-c3ccc(F)c4sc(N)c(C#N)c34)c(C(F)(F)F)cc12)[C@@H]1CCN(C(=O)OC)C1` [Compound 396] was tested. Which IC50 did it give?
Its IC50 is < 100 nM.

How did the IC50 turn out when `CCC(=O)N1CC[C@@H](N(C)c2nc(OC[C@@]34CCCN3C[C@H](F)C4)nc3c(F)c(-c4ccc(F)c5sc(N)c(C#N)c45)c(Cl)cc23)[C@H]1C` [Compound 399] was run?
Its IC50 is < 100 nM.

`C[C@@H]1[C@H](N(C)c2nc(OC[C@@]34CCCN3C[C@H](F)C4)nc3c(F)c(-c4ccc(F)c5sc(N)c(C#N)c45)c(Cl)cc23)CCN1C(=O)C1CC1` [Compound 401] was tested. Which IC50 did it give?
Its IC50 is < 100 nM.

How did the IC50 turn out when `C[C@H]1CN(c2nc(OC[C@@]34CCCN3C[C@H](F)C4)nc3c(F)c(-c4ccc(F)c5sc(N)c(C#N)c45)c(C(F)(F)F)cc23)Cc2cc(C(=O)N(C)C)nn21` [Compound 402] was run?
The IC50 was < 100 nM.

Which IC50 does the source give for `N#Cc1c(N)sc2c(F)ccc(-c3c(C(F)(F)F)cc4c(N5CCO[C@H]6C[C@H]65)nc(OC[C@@]56CCCN5C[C@H](F)C6)nc4c3F)c12` [Compound 403] here?
The IC50 was < 100 nM.

Target: T1, Avi-KRAS WT (1-169) GppNHp/RAF1 RBD-3xFLAG (52-151) (Homo sapiens, UniProt P01116)
T1 construct: Avi-KRAS WT (1-169)
T1 sequence (P01116 1-169 isoform P01116-2): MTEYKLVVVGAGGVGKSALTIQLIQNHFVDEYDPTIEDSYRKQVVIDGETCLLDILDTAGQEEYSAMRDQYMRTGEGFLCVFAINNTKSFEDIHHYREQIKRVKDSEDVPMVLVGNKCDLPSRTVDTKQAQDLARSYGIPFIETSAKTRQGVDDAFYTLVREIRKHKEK
Experiment: Raf1-KRAS WT-GppNHP disruption HTRF assay (Biological Example 1)
Type: binding
Settings: KRAS WT-GppNHp/RAF1 RBD HTRF
Summary of the method: (§1)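 Protein mix, 1 h RT, 700 rpm; reagent mix, 1 h RT, 700 rpm; HTRF read. Buffer Tris pH 7.5/NaCl/MgCl2/BSA/Tween, 10% DMSO. Output % activity, DMSO = 100%.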

With `CCN(c1nc(OC[C@@]23CCCN2C[C@H](F)C3)nc2c(F)c(-c3ccc(F)c4sc(N)c(C#N)c34)c(C(F)(F)F)cc12)[C@@H]1CCN(C(=O)OC)C1` [Compound 396] as the compound, how does the IC50 read?
Its IC50 is 100 to 1000 nM.

For `CCC(=O)N1CC[C@@H](N(C)c2nc(OC[C@@]34CCCN3C[C@H](F)C4)nc3c(F)c(-c4ccc(F)c5sc(N)c(C#N)c45)c(Cl)cc23)[C@H]1C` [Compound 399], which IC50 is on record?
Its IC50 is 100 to 1000 nM.

`C[C@@H]1[C@H](N(C)c2nc(OC[C@@]34CCCN3C[C@H](F)C4)nc3c(F)c(-c4ccc(F)c5sc(N)c(C#N)c45)c(Cl)cc23)CCN1C(=O)C1CC1` [Compound 401] was tested. Which IC50 did it give?
Its IC50 is 100 to 1000 nM.

`C[C@H]1CN(c2nc(OC[C@@]34CCCN3C[C@H](F)C4)nc3c(F)c(-c4ccc(F)c5sc(N)c(C#N)c45)c(C(F)(F)F)cc23)Cc2cc(C(=O)N(C)C)nn21` [Compound 402] was tested. Which IC50 did it give?
The IC50 was 1000 to 10000 nM.

Which IC50 does the source give for `N#Cc1c(N)sc2c(F)ccc(-c3c(C(F)(F)F)cc4c(N5CCO[C@H]6C[C@H]65)nc(OC[C@@]56CCCN5C[C@H](F)C6)nc4c3F)c12` [Compound 403] here?
Its IC50 is 100 to 1000 nM.

Target: T2, Avi-KRAS G12D (1-169) GppNHp/RAF1 RBD-3xFLAG (52-151) (Homo sapiens, UniProt P01116, G12D)
T2 construct: Avi-KRAS G12D (1-169)
T2 sequence (P01116 1-169 isoform P01116-2 G12D): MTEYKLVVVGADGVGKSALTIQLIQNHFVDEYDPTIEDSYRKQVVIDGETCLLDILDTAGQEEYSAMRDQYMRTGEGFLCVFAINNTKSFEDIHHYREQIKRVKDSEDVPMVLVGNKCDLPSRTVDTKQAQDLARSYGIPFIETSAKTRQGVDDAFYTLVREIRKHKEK
Experiment: Raf1-KRAS G12D-GppNHP disruption HTRF assay (Biological Example 1)
Type: binding
Settings: KRAS G12D-GppNHp/RAF1 RBD HTRF
Summary of the method: as §1

Which IC50 does the source give for `CCN(c1nc(OC[C@@]23CCCN2C[C@H](F)C3)nc2c(F)c(-c3ccc(F)c4sc(N)c(C#N)c34)c(C(F)(F)F)cc12)[C@@H]1CCN(C(=O)OC)C1` [Compound 396] here?
The IC50 was 100 to 1000 nM.

How did the IC50 turn out when `CCC(=O)N1CC[C@@H](N(C)c2nc(OC[C@@]34CCCN3C[C@H](F)C4)nc3c(F)c(-c4ccc(F)c5sc(N)c(C#N)c45)c(Cl)cc23)[C@H]1C` [Compound 399] was run?
The IC50 was 100 to 1000 nM.

Which IC50 does the source give for `C[C@@H]1[C@H](N(C)c2nc(OC[C@@]34CCCN3C[C@H](F)C4)nc3c(F)c(-c4ccc(F)c5sc(N)c(C#N)c45)c(Cl)cc23)CCN1C(=O)C1CC1` [Compound 401] here?
The IC50 was 100 to 1000 nM.

Which IC50 does the source give for `C[C@H]1CN(c2nc(OC[C@@]34CCCN3C[C@H](F)C4)nc3c(F)c(-c4ccc(F)c5sc(N)c(C#N)c45)c(C(F)(F)F)cc23)Cc2cc(C(=O)N(C)C)nn21` [Compound 402] here?
The IC50 was 100 to 1000 nM.

For `N#Cc1c(N)sc2c(F)ccc(-c3c(C(F)(F)F)cc4c(N5CCO[C@H]6C[C@H]65)nc(OC[C@@]56CCCN5C[C@H](F)C6)nc4c3F)c12` [Compound 403], which IC50 is on record?
The IC50 was 100 to 1000 nM.

Target: T3, Avi-KRAS G12R (1-169) GppNHp/RAF1 RBD-3xFLAG (52-151) (Homo sapiens, UniProt P01116, G12R)
T3 construct: Avi-KRAS G12R (1-169)
T3 sequence (P01116 1-169 isoform P01116-2 G12R): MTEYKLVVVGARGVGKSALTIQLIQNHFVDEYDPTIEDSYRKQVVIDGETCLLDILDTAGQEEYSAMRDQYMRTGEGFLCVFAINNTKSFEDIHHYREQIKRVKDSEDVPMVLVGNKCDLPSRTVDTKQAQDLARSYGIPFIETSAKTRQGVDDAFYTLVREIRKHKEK
Experiment: Raf1-KRAS G12R-GppNHP disruption HTRF assay (Biological Example 1)
Type: binding
Settings: KRAS G12R-GppNHp/RAF1 RBD HTRF
Summary of the method: as §1

Which IC50 does the source give for `CCN(c1nc(OC[C@@]23CCCN2C[C@H](F)C3)nc2c(F)c(-c3ccc(F)c4sc(N)c(C#N)c34)c(C(F)(F)F)cc12)[C@@H]1CCN(C(=O)OC)C1` [Compound 396] here?
The IC50 was 100 to 1000 nM.

`CCC(=O)N1CC[C@@H](N(C)c2nc(OC[C@@]34CCCN3C[C@H](F)C4)nc3c(F)c(-c4ccc(F)c5sc(N)c(C#N)c45)c(Cl)cc23)[C@H]1C` [Compound 399] was tested. Which IC50 did it give?
The IC50 was 100 to 1000 nM.

With `C[C@@H]1[C@H](N(C)c2nc(OC[C@@]34CCCN3C[C@H](F)C4)nc3c(F)c(-c4ccc(F)c5sc(N)c(C#N)c45)c(Cl)cc23)CCN1C(=O)C1CC1` [Compound 401] as the compound, how does the IC50 read?
Its IC50 is 100 to 1000 nM.

`C[C@H]1CN(c2nc(OC[C@@]34CCCN3C[C@H](F)C4)nc3c(F)c(-c4ccc(F)c5sc(N)c(C#N)c45)c(C(F)(F)F)cc23)Cc2cc(C(=O)N(C)C)nn21` [Compound 402] was tested. Which IC50 did it give?
Its IC50 is 100 to 1000 nM.

Which IC50 does the source give for `N#Cc1c(N)sc2c(F)ccc(-c3c(C(F)(F)F)cc4c(N5CCO[C@H]6C[C@H]65)nc(OC[C@@]56CCCN5C[C@H](F)C6)nc4c3F)c12` [Compound 403] here?
Its IC50 is 100 to 1000 nM.

Target: T4, Avi-KRAS G12V (1-169) GppNHp/RAF1 RBD-3xFLAG (52-151) (Homo sapiens, UniProt P01116, G12V)
T4 construct: Avi-KRAS G12V (1-169)
T4 sequence (P01116 1-169 isoform P01116-2 G12V): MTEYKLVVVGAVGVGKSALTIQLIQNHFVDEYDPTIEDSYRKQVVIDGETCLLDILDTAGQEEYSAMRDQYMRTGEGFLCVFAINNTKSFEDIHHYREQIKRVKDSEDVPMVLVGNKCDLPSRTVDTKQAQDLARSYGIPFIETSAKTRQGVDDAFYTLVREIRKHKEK
Experiment: Raf1-KRAS G12V-GppNHP disruption HTRF assay (Biological Example 1)
Type: binding
Settings: KRAS G12V-GppNHp/RAF1 RBD HTRF
Summary of the method: as §1

How did the IC50 turn out when `CCN(c1nc(OC[C@@]23CCCN2C[C@H](F)C3)nc2c(F)c(-c3ccc(F)c4sc(N)c(C#N)c34)c(C(F)(F)F)cc12)[C@@H]1CCN(C(=O)OC)C1` [Compound 396] was run?
Its IC50 is 100 to 1000 nM.

How did the IC50 turn out when `CCC(=O)N1CC[C@@H](N(C)c2nc(OC[C@@]34CCCN3C[C@H](F)C4)nc3c(F)c(-c4ccc(F)c5sc(N)c(C#N)c45)c(Cl)cc23)[C@H]1C` [Compound 399] was run?
Its IC50 is 100 to 1000 nM.

With `C[C@@H]1[C@H](N(C)c2nc(OC[C@@]34CCCN3C[C@H](F)C4)nc3c(F)c(-c4ccc(F)c5sc(N)c(C#N)c45)c(Cl)cc23)CCN1C(=O)C1CC1` [Compound 401] as the compound, how does the IC50 read?
Its IC50 is 100 to 1000 nM.

`C[C@H]1CN(c2nc(OC[C@@]34CCCN3C[C@H](F)C4)nc3c(F)c(-c4ccc(F)c5sc(N)c(C#N)c45)c(C(F)(F)F)cc23)Cc2cc(C(=O)N(C)C)nn21` [Compound 402] was tested. Which IC50 did it give?
The IC50 was 100 to 1000 nM.

With `N#Cc1c(N)sc2c(F)ccc(-c3c(C(F)(F)F)cc4c(N5CCO[C@H]6C[C@H]65)nc(OC[C@@]56CCCN5C[C@H](F)C6)nc4c3F)c12` [Compound 403] as the compound, how does the IC50 read?
The IC50 was 100 to 1000 nM.

Test system: SW620 cells (KRAS G12V)
Experiment: Cell-based pERK HTRF assay in SW620 cell (Biological Example 4)
Settings: Homo sapiens, SW-620, SW620 (KRAS G12V) cells, pERK HTRF
Summary of the method: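 SW620 seeded in RPMI/10% FBS, next day dosed 4 h (top 1 μM, half-log, 9 pts, 0.25% DMSO). Lysed, pERK by d2/Eu cryptate HTRF, 4–24 h RT, 615 nm read.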

`CCN(c1nc(OC[C@@]23CCCN2C[C@H](F)C3)nc2c(F)c(-c3ccc(F)c4sc(N)c(C#N)c34)c(C(F)(F)F)cc12)[C@@H]1CCN(C(=O)OC)C1` [Compound 396] was tested. Which IC50 did it give?
Its IC50 is < 100 nM.

Which IC50 does the source give for `CCC(=O)N1CC[C@@H](N(C)c2nc(OC[C@@]34CCCN3C[C@H](F)C4)nc3c(F)c(-c4ccc(F)c5sc(N)c(C#N)c45)c(Cl)cc23)[C@H]1C` [Compound 399] here?
The IC50 was < 100 nM.

How did the IC50 turn out when `C[C@@H]1[C@H](N(C)c2nc(OC[C@@]34CCCN3C[C@H](F)C4)nc3c(F)c(-c4ccc(F)c5sc(N)c(C#N)c45)c(Cl)cc23)CCN1C(=O)C1CC1` [Compound 401] was run?
Its IC50 is < 100 nM.

For `C[C@H]1CN(c2nc(OC[C@@]34CCCN3C[C@H](F)C4)nc3c(F)c(-c4ccc(F)c5sc(N)c(C#N)c45)c(C(F)(F)F)cc23)Cc2cc(C(=O)N(C)C)nn21` [Compound 402], which IC50 is on record?
Its IC50 is < 100 nM.

For `N#Cc1c(N)sc2c(F)ccc(-c3c(C(F)(F)F)cc4c(N5CCO[C@H]6C[C@H]65)nc(OC[C@@]56CCCN5C[C@H](F)C6)nc4c3F)c12` [Compound 403], which IC50 is on record?
Its IC50 is < 100 nM.
